According to paper PMC8329121 (Journal of Neuroimmune Pharmacology, 2021):
Residue numbers refer to the chain shown, from its start.

Columns and labels:
[1] = target: T1, E2C/H547A hDAT (C90A/C306A/H547A) (Homo sapiens, UniProt Q01959, C306A/C90A/H547A); assay: MTSET assay, [3H]DA uptake in HEK293 cells; assay type: cell-based; settings: 1 mM MTSET, HEK293, Fig. 8b
T1 construct: expressed in transfected cells; host or cells: HEK293 cells, transient, pcDNA3.1+
T1 sequence (Q01959 1-620 C90A/C306A/H547A): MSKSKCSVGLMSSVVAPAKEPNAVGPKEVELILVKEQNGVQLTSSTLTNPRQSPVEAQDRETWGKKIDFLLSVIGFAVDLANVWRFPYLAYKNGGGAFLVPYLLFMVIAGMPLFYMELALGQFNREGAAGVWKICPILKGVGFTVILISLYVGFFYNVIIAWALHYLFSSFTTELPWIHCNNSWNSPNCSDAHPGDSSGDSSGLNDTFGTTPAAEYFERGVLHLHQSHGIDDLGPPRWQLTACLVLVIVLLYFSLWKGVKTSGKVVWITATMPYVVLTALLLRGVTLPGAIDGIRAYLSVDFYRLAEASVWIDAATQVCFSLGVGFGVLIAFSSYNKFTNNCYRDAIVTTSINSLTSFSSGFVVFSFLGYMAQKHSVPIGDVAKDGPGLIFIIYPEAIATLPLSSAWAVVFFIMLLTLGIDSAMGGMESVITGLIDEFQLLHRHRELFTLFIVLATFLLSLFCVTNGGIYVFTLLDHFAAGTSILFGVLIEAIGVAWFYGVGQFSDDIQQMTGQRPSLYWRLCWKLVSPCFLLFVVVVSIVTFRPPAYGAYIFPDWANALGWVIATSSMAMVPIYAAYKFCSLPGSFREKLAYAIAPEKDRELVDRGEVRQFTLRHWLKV
Source text: (§1) All mutants on hDAT were generated based on the predictions made using our computational model, as described previously using site-directed mutagenesis based on the wild-type hDAT (WT hDAT) sequence (NCBI, cDNA clone MGC: 164,608 IMAGE: 40,146,999) (Quizon et al. [2016]). The combination of hDAT mutations on Asp206 and His547 (Aspartic acid 206 to leucine and histidine 547 to alanine, D206L/H547A) were predicted to eliminate two hydrogen bonds between Tat and hDAT. In addition, the combination of mutations on Tyr88, Asp206, and His547 (tyrosine88 to phenylalanine and aspartic acid 206 to leucine and histidine 547 to alanine, Y88F/D206L/H547A) were predicted to eliminate three hydrogen bonds from the Tat-hDAT complex. Two extracellular cysteine90 and cysteine306 residues on WT hDAT were mutated to alanine as E2C hDAT (C90A/C306A hDAT), rendering the E2C hDAT MTSET-insensitive background (Pedersen et al. [2014]). A triple mutation of the two cysteine90 and 306 residues to alanine and […] to cysteine on WT hDAT was generated as E2C-I159C hDAT (C90A/C306A/I159C) for MTSET-sensitive construct. A combination of C90A/C306A/H547A was generated as E2C/H547A hDAT for MTSET-insensitive control for H547A. To determine whether H547A-enhanced DA transport is mediated by changing transporter conformation, two combinations of C90A/C306A/I159C/H547A and C90A/C306A/I159A/H547A were generated as E2C-I159C/H547A and E2C-I159A/H547A for positive and negative controls for MTSET sensitive background, respectively. Synthetic cDNA encoding hDAT subcloned into pcDNA3.1+ (provided by Dr. Haley E Melikian, University of Massachusetts) was used as a template to generate mutants using site-directed mutagenesis performed by GENEWIZ (South Plainfield, NJ). DNA sequencing was also performed by GENEWIZ to confirm the sequences of the mutant constructs. Plasmid DNA were propagated and purified using the Qiagen Hi-speed maxi prep plasmid DNA isolation kit (Qiagen, Valencia, CA, USA).
(§2) This assay was performed based on the previous report with minor modifications (Loland et al. [2004], [2008]). First, we generated five WT hDAT based plasmid construct for MTSET-insensitive or sensitive background as we described above. HEK293 cells were grown in poly-d-lysine coated plates at a density of 1 × 10^5 cells/cm^2 were transfected with different E2C- associated hDAT background constructs: E2C hDAT, E2C-I159C hDAT, E2C/H547A hDAT, E2C-I159C/H547A or E2C-I159A/H547A. Twenty-four hours after the transfection, cells were washed twice with 1× KRH buffer, and preincubated with or without the presence of 10 µM nomifensine (for non-specific uptake) and MTSET for 10 min at room temperature. MTSET at 1 mM final concentration was chosen based on a pilot study on optimizing MTSET concentrations (0.1, 0.5 or 1.0 mM). […] Because MTSET is easily hydrolyzed in solution, the amount needed for a 10 × stock was weighed out and dissolved in 1 × KRH buffer just right before adding to the assigned wells, for a 10-fold dilution (final concentration of 1 mM in final volume of 250 µl). […] Cells were immediately washed twice with ice-cold 1 × KRH buffer to terminate the reaction and were lysed rapidly with the addition of 1 % SDS. Cell lysates were collected after incubation for 1 h at room temperature and radioactivity was determined the next day.

[2] = target: T2, E2C-I159C/H547A (C90A/C306A/I159C/H547A) (Homo sapiens, UniProt Q01959, C306A/C90A/H547A/I159C); assay: MTSET assay, [3H]DA uptake in HEK293 cells; assay type: cell-based; settings: 1 mM MTSET
T2 construct: expressed in transfected cells; host or cells: HEK293 cells, transient, pcDNA3.1+
T2 sequence (Q01959 1-620 C90A/I159C/C306A/H547A): T1 sequence (Q01959 1-620 C90A/C306A/H547A) with I159C
Source text: as §1, §2

Question: What does the source list for C[N+](C)(C)CCSS(C)(=O)=O [MTSET, [2-(trimethylammonium)ethyl]-methanethiosulfonate]?
Answer: effect of MTSET on DA uptake [1]: no effect; further inhibition of [3H]DA uptake compared to E2C-I159C ([2]; Fig. 8b): 34%; inhibition of DA uptake relative to E2C ([2]; Fig. 8b): 65%; [3H]DA uptake in the presence of MTSET ([2]; HEK293, Fig. 8b): 30.4 ± 3.52
